Columns and labels:
[1] = target: streptavidin (Streptomyces avidinii, UniProt P22629); test: homogeneous on-line mass spectrometric biochemical assay, streptavidin / fluorescein-biotin reporter; format: binding; conditions: for effect of analyte injection on binding of reporter fluorescein-biotin to streptavidin (SIM MS signal at m/z 390): equal concentrations injected, 32 nmol/l streptavidin, 96 nmol/l fluorescein-biotin, FIG. 2
Experimental: Streptavidin is a well-known affinity protein with a high affinity for biotin and biotinylated compounds. To a carrier solution consisting of 10 mmol/L ammonium formate/methanol (90:10, v/v) pumped at a flow rate of 50 μl/min a solution of 32 nmol/l streptavidin dissolved in 10 mmol/L ammonium formate was added at a flow rate of 50 μl/min. The mixture was pumped through a knitted […]. poly(tetrafluoroethylene) reaction coil with an internal volume of 17 μl. Subsequently, a solution of 96 nmol/l fluorescein-biotin dissolved in 10 mmol/L ammonium formate/methanol (90:10, v/v) was added at a flow rate of 100 μl/min. The mixture was then pumped through a knitted […]. poly(tetrafluoroethylene) reaction coil with an internal volume of 33 μl and subsequently introduced into a mass spectrometer equipped with an electrospray ionization (ESI) source. Mass spectrometry was operated in selected-ion monitoring (SIM) in the positive-ion (PI) mode on [M+H]+and on one or more intense fragment ions. The ESI source conditions for the streptavidin/biotin system: source temperature, 80° C.; capillary voltage, 3.2 kV. The sampling cone voltage was 30 and 60 V for biotin and fluorescein-labeled biotin, respectively.
At point 1, only carrier buffer was pumped into the mass spectrometer providing a reference background signal. […] At point 3, the streptavidin pump was switched on.

[2] = system: fab fragments of anti-digoxigenin antibodies (fab anti-digoxigenin); test: homogeneous on-line mass spectrometric biochemical assay, fab anti-digoxigenin / digoxigenin reporter; format: binding; conditions: 100 nmol/l fab anti-digoxigenin, 200 nmol/l digoxigenin; FIG. 3, point 4
Experimental: To a carrier solution consisting of 10 mmol/L ammonium formate/methanol (90:10, v/v) pumped at a flow rate of 50 μl/min a solution of 100 nmol/l fab anti-digoxigenin dissolved in 10 mmol/L ammonium formate was added at a flow rate of 50 μl/min. The mixture was pumped through a knitted 300 μm i.d. poly(tetrafluoroethylene) reaction coil with an internal volume of 65 μl. Subsequently, a solution of 200 nmol/l digoxigenin dissolved in 10 mmol/L ammonium formate/methanol (90:10, v/v) is added at a flow rate of 100 ill/min. The mixture was then pumped through a knitted 300 μm i.d. poly(tetrafluoroethylene) reaction coil with an internal volume of 33 μl and subsequently introduced into a mass spectrometer equipped with an electrospray ionization (ESI) source. Mass spectrometry was operated in selected-ion monitoring (SIM) in the positive-ion (PI) mode on [M+H]+and on one or more intense fragment ions.
At point 1, only carrier buffer was pumped into the mass spectrometer providing a reference background signal. At point 2, the digoxigenin pump was switched on leading to an increase of the selected-ion monitoring MS signal at m/z 408 (the ammonium adduct of digoxigenin). At point 3, the fab anti-digoxigenin pump was switched on.

Chain of streptavidin (P22629 25-183): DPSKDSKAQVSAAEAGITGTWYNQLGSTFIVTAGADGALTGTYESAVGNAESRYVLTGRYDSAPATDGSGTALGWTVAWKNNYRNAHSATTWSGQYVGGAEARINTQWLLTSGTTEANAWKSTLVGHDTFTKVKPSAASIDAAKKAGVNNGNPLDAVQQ

Row | Compound | effect of analyte injection on binding of reporter fluorescein-biotin to streptavidin (SIM MS signal at m/z 390) [1] | also measured
1 | NNC(=O)CCCCCNC(=O)CCCC[C@@H]1SC[C@@H]2NC(=O)N[C@@H]21 [N-biotinyl-6-aminocaprioc hydrazide] | capable to prevent the binding of the reporter molecule, fluorescein-biotin, to streptavidin | 
2 | N[C@@H](CCCCNC(=O)CCCC[C@@H]1SC[C@@H]2NC(=O)N[C@@H]21)C(=O)O [N-biotin-L-lysine] | capable to prevent the binding of the reporter molecule, fluorescein-biotin, to streptavidin | 
3 | O=C(O)CCCC[C@@H]1SC[C@@H]2NC(=O)N[C@@H]21 [biotin] | capable to prevent the binding of the reporter molecule, fluorescein-biotin, to streptavidin | effect of injection on free streptavidin binding sites / free fluorescein-biotin concentration (SIM MS signal at m/z 390) ([1]; FIG. 1, point 4): decrease of free streptavidin binding sites and an increase of the free fluorescein-biotin concentration
4 | fluorescein-biotin |  | effect of adding streptavidin on free reporter ligand (SIM MS signal at m/z 390) ([1]; FIG. 1, point 3): decrease of the concentration of free fluorescein-biotin
5 | C[C@H]1O[C@@H](O[C@H]2[C@@H](O)C[C@H](O[C@H]3[C@@H](O)C[C@H](O[C@H]4CC[C@@]5(C)[C@H](CC[C@@H]6[C@@H]5C[C@@H](O)[C@]5(C)[C@@H](C7=CC(=O)OC7)CC[C@]65O)C4)O[C@@H]3C)O[C@@H]2C)C[C@H](O)[C@@H]1O [digoxin] |  | effect of injection on free fab anti-digoxigenin binding sites / free digoxigenin concentration (SIM MS signal at m/z 408) [2]: decrease of free fab anti-digoxigenin binding sites and an increase of the free digoxigenin concentration
